Measurements: US7026356B2, “Fatty acid analogues for the treatment of diseases caused by the pathological proliferation of smooth muscle cells” (priority 1998, dated 2006)

Legend:
[1] = Local administration of radiolabelled TTA, presence in coronary arteries; type: in vivo; conditions: administered locally in two extra pigs; after 4 and 6 weeks
[2] = Plasma lipid lowering on feeding moderate doses to animals; type: in vivo, rats, mice, rabbits and dogs; conditions: for potency in lowering plasma triacylglycerols and cholesterol: compared with polyunsaturated fatty acids like EPA
Source text: (§1) Feeding moderate doses of TTA to animals like rats, mice, rabbits and dogs decreased both plasma cholesterol and triacylglycerol levels within days of treatment.

[3] = tested on: strains of Escherichia coli; assay: Tests for mutagenic activity in bacterial strains; type: cell-based; conditions: E. coli; 3–1000 mg/plate (TTA), 2–5000 mg/plate (TSA)
Source text: (§2) Tests for mutagenic activity have been performed by Covance Laboratories Limited, England. […] Furthermore, TTA was not mutagenic when tested in mouse lymphoma cells […] L5178Y.

[4] = tested on: strains of Salmonella typhimurium; assay: Tests for mutagenic activity in bacterial strains; type: cell-based; conditions: S. typhimurium; 3–1000 mg/plate (TTA), 2–5000 mg/plate (TSA)
Source text: as §2

[5] = tested on: cultured Chinese hamster ovary cells; assay: Chromosomal aberrations in cultured Chinese hamster ovary cells; type: cell-based; conditions: CHO cells, doses tested 12–140 mg/ml
[6] = tested on: mouse lymphoma cells, L5178Y; assay: Mutagenicity in mouse lymphoma cells; type: cell-based; conditions: 2.5–50 mg/ml
Source text: as §2

restenosis = assay: IVUS (intravascular ultrasound) after balloon injury; type: in vivo, minipigs
Protocol: (§3) A follow-up angiography was performed in the same frontal view after 10 weeks, following the same procedure as indicated above, by using ioxaglate (Hexabrix®) as contrast medium. The sheath was now inserted in the left carotid artery. Intravascular ultrasound was performed to quantitate wall thickness and lumen diameter. After angiography a laparotomy was performed and the abdominal aorta was cannulated with an 18G infusion-needle. The animals were euthanised by giving overdose pentobarbital intraarterially via the sheath in the left carotid artery.
(§4) Various local drug delivery systems have been developed to enable local application of pharmacological agents in conjunction with PTCA. In this study 20 minipigs were randomised to placebo or active treatment with the fatty acid analogue tetradecylthioaceticacid acid (TTA) via a Transport® multiphorous angioplasty balloon catheter. This catheter has a sleeve embracing the balloon and the drug is delivered through a separate lumen connected to the sleeve which has multiple holes.
(§5) Coronary balloon angioplasty injury using an oversized balloon was performed to the LAD or LCx followed by 3 bolus deliveries of 0.5 ml (0.33 mg/ml TTA) of active drug/placebo. Quantitative angiography as indicated in the preceding sections was performed before and after injury, and after 4 weeks follow-up. Subsequently the pigs were sacrificed, perfusion-fixed with glutaraldehyde and the vessels prepared for histology with computer assisted planimetry.
The ICUS (intracoronary ultrasound) results were consistent with the angiography data.

[7] = tested on: restenosis (iliac artery); assay: Prevention of restenosis in rabbits given TTA orally, quantitative angiography after iliac balloon angioplasty; type: in vivo, Chinchilla (Chbb:CH) rabbits; conditions: for diameter artery (Ds) / dilatation/stenosis (Dr − Ds)/Dr / reference diameter (Dr): TTA 800 mg daily oral
Protocol: Fourteen Chinchilla (Chbb:CH) rabbits of either sex were randomised either to receive supplement with TTA fatty acids 800 mg daily (mean weight 3.6±0.09 kg) or to placebo (mean weight 3.5±0.47 kg).
The animals were pre-treated with TTA given as oral supplements, mixed with daily food pellets, for three weeks to ensure accumulation of the fatty acid analogues in the tissues.
After premedication with 0.5 ml fentanyl (0.315 mg/ml) and fluanisone (10 mg/ml) (Hypnorm®) intramuscularly, the rabbits were anaesthetised by administering diazepam 4 mg/kg intraperitoneally and maintained by additional 0.3–0.4 ml of a 1:1 mixture of Hypnorm® and diazepam, usually necessary once during the procedure.
After local infiltration of the skin by lignocaine (Xylocaine®) and surgical cut-down, the right carotid artery was cannulated by a 6F sheath. A bolus of 100 U/kg of heparin was administered intraarterially. Before the angioplasty, an angiography was performed in the frontal view by injecting 3 ml of ioxaglate (Hexabrix®) as contrast medium via a Berman® catheter.
An angioplasty balloon catheter (Express®) of 2.5 mm was positioned in the proximal part of each iliac artery and balloon angioplasty was performed with 2 balloon inflations at the same site in each artery, at 8 and 12 atmosphere for 30 seconds each to overstretch the artery. The balloon marker, on the middle of the 20 mm long balloon, was placed over the ilio-sacral joint, thus ensuring that the balloon was positioned at identical sites. Inflation was performed using a pressure manometer (Encore® 26 inflation device, Scimed, Boston Scientific corporation).
A further angiography was performed in the same frontal view as the first angiography to assure artery patency. The carotid artery was ligated and the skin was closed with ligatures. Buprenorfin 0.3 mg (Temgesic®) and penicillin were given subcutaneous once daily for the first days.
as §3
The frames with maximal opacification from baseline angiographies (before and after dilatation), as well as from the follow-up angiography were stored for subsequent quantitative analysis. Arterial diameter before and after dilatation as well as the balloon to artery ratio were measured. The minimal luminal diameter, reference diameter and stenosis were determined. All measurements were performed with a digital electronic calliper (Sandhill, model EC-1)(12). A balloon angioplasty catheter (Express® 2.5 mm), placed on the abdomen and dilated at 8 atmospheres (rated balloon diameter 2.5 mm) served for calibration.
Acute gain: minimal luminal diameter (MLD) post dilatation minus diameter artery before dilatation. Late loss: MLD post dilatation minus MLD at control angiography. Loss index: late loss divided by acute gain.

[8] = tested on: human smooth muscle cells (SMC); assay: Proliferation of cultured smooth muscle cells (cell counting); type: cell-based; conditions: 100 μM with BSA, cells counted after 3 and 6 days, FIG. 3
Protocol: SMC are human smooth muscle cells available from American Type Culture Collection (Type 1999-CRL). The SMC cells were cultured in bottles (75 cm^2) in Ham's F12K medium. 24 hours after inoculation, the fatty acids and BSA in a molar ratio of 1:2.5 were added to the medium, i.e. to a final concentration of palmitic acid and TTA of 100 μM. After 3 and 6 days the cells were trypsinated, and the number of cells determined by using a light microscopy with counting chambers (Leitz Wetzler).

[9] = Hepatic and plasma fatty acid composition after TTA administration to rats; type: in vivo; conditions: 12 weeks
Source text: Thus the compound of the present invention modifies the composition of the lipids in various tissues.

[10] = tested on: restenosis (coronary artery, LAD or LCx); assay: Prevention of restenosis in mini pigs, local administration of TTA, quantitative angiography and histology; type: in vivo; conditions: minipigs; for Luminal diameter: local TTA 3 x 0.5 ml (0.33 mg/ml)
Source text: as §4, §5

[11] = 28 days toxicity study in dogs (GLP); type: in vivo
Source text: A 28 days toxicity study in dogs according to GLP guide-lines has been performed by Corning Hazleton (Europe), England. […] Some lipid related parameters were lowered in the animals given high dosages. This is consistent with the pharmacological activity of TTA.

[12] = tested on: mitochondrial β-oxidation system; assay: Mitochondrial β-oxidation
Source text: The studies have shown that TTA has properties very similar to natural fatty acids, the main difference being that TTA is not oxidised by the mitochondrial β-oxidation system.
as §1

[13] = Total plasma homocysteine in rats given TTA; type: in vivo; conditions: Male Wistar rats, 300 mg TTA per kg body weight per day in 10 days
Protocol: Increased levels of homocysteine, i.e. hyperhomocysteinemia has been proposed to be associated with arterial diseases, and we thus measured the levels of homocysteine in plasma samples from Male Wistar rats given 300 mg TTA per kg body weight per day in 10 days.
Total plasma homocysteine was measured by a fully automated fluorescence assay. 30 μl plasma was reduced by 30 μl NaBH4/DMSO solution (6 mol/L). After 1.5 min 20 μl of the fluorescence reagent monobromobimane (25 mmol/L) in acetonitrile was added and allowed to react for 3 min. 20 μl of the sample was then immediately analysed with HPLC by injection on a strong cation-exchange column, and then by column switching into a cyclohexyl silica column. The SCX column was eluted isocratically and the CH column was eluted with a linear methanol gradient (17–35% in 5 min) in 20 mmol/L formate buffer. The homocysteine was eluted at a retention time of 4.5 min.

[14] = moderate doses, within days of treatment
[15] = control angiography (follow-up)

With `CCCCCCCCCCCCCCSC[14C](=O)O` [1-^14C-TTA] the “presence of active drug in the coronary arteries” value [1] was “confirmed the presence of active drug”.
For `CCCCCCCCCCCCCC[Se]CC(=O)O` [TSA, tetradecylselenioacetic acid], the “potency in lowering plasma triacylglycerols and cholesterol” value [2] was “far more potent”, the induction of mutations [3] was “did not induce mutations” and the induction of mutations [4] was “did not induce mutations”. For the same compound, the chromosomal aberrations [5] was “no aberrations were induced”.
With Tetradecylthioacetic acid [TTA] the “potency in lowering plasma triacylglycerols and cholesterol” value [2] was “far more potent”, the plasma cholesterol levels [2, 14] was “decreased” and the plasma triacylglycerol levels [2, 14] was “decreased”. The mutagenicity [6] was “not mutagenic”, the Area site (restenosis) was 0.61 ± 0.152 mm^2 and the Max. diameter site (restenosis) was 2.87 ± 0.408 mm. For the same compound, the Minimal diameter site (restenosis) was 2.76 ± 0.381 mm, the induction of mutations [3] was “did not induce mutations” and the induction of mutations [4] was “did not induce mutations”. The late loss ([7]; MLD post dilatation minus MLD at control angiography) was 0.76 ± 0.38, the acute gain ([7]; MLD post dilatation minus diameter artery before dilatation) was 0.48 ± 0.22 mm and the “diameter artery (Ds)” value ([7]; after dilatation) was 2.36 ± 0.19 mm. For the same compound, the “dilatation/stenosis (Dr − Ds)/Dr” value ([7]; after dilatation) was −31.2, the “reference diameter (Dr)” value ([7]; after dilatation) was 1.80 ± 0.17 mm and the “diameter artery (Ds)” value ([7]; before dilatation) was 1.91 ± 0.18 mm. The “reference diameter (Dr)” value ([7]; before dilatation) was 1.91 ± 0.18 mm, the “diameter artery (Ds)” value [7, 15] was 1.60 ± 0.26 mm and the “dilatation/stenosis (Dr − Ds)/Dr” value [7, 15] was 23.5. For the same compound, the “reference diameter (Dr)” value [7, 15] was 2.07 ± 0.15 mm, the “decrease in artery diameter at follow-up” value ([7]; follow-up after angioplasty, oral TTA) was “inhibited the decrease in artery diameter” and the loss index ([7]; late loss divided by acute gain) was 1.53 ± 0.46. The “growth of smooth muscle cells” value [8] was “inhibiting effect”, the “hepatic and plasma content of monounsaturated fatty acids (mainly oleic acid)” value [9] was “nearly doubled” and the “polyunsaturated fatty acids (mainly linoleic acid and DHA)” value [9] was “decreased”. The chromosomal aberrations [5] was “no aberrations were induced”, the Luminal diameter ([10]; after PTCA) was 3.2 mm and the Luminal diameter ([10]; at follow-up) was 2.2 mm. The Luminal diameter ([10]; before PTCA) was 2.6 mm, the maximal intimal thickness ([10]; treated group with respect to the placebo group) was “unchanged” and the body weight ([11]; 500 mg/kg/day) was “body weight loss”. For the same compound, the lipid related parameters ([11]; animals given high dosages) was “lowered”, the evidence of toxicity ([11]; dose levels of 50 or 500 mg/day/kg) was “no evidence of toxicity” and the “tolerability of oral administration” value ([11]; oral, dose levels up to 500 mg/kg/day) was “generally well tolerated”. The “oxidation by the mitochondrial β-oxidation system” value [12] was “not oxidised” and the “Plasma concentration of homocysteine” value [13] was 5.4 ± 1.0 µmol/L.
